Results published in patent publication US20040029928A1, “Novel propenohydroxamic acid derivatives” (priority 2000, published 2004).

Key:
MMP-1 = biological target: T1, MMP-1 (Homo sapiens, UniProt P03956); test: Measurement of MMP-1 inhibitory activity; format: biochemical; conditions: MMP-1 (Cosmo Bio), fluorogenic substrate
T1 construct: purchased Cosmo Bio Co
T1 sequence (P03956 100-469): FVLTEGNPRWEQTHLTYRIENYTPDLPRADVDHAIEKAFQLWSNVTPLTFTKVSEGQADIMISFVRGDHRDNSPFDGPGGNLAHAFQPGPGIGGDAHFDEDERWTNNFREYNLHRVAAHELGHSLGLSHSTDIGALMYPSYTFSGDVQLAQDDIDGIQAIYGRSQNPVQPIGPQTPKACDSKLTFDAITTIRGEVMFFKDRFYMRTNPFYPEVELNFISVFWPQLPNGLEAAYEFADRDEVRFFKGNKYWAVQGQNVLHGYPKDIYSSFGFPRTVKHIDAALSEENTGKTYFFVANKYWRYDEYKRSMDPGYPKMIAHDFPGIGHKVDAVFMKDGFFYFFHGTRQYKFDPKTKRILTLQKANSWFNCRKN
Method: Test 2 (Measurement of MMP-1 Inhibitory Activity)
MMP-1 inhibitory activity (IC50 value) was measured in accordance with the above-described measuring method of TACE inhibitory activity by using MMP-1 (product of Cosmo Bio Co.) and, as a substrate, 7-methoxycoumarin-4-yl-acetyl-PLGL-[N^3-(2,4-dinitrophenyl)2,3-diaminopropionyl]-AR—NH2 (product of Peptide Institute Inc.). The fluorescence intensity was measured using POLAR STAR (Ex: 340 nm, Em: 405 nm).

[1] = biological target: T2, TACE (crude extracted protein from membrane fraction of THP-1 cells) (Homo sapiens, UniProt P78536); test: In vitro TACE inhibitory activity (fluorogenic peptide substrate); format: biochemical; conditions: crude TACE 10 μg/mL, substrate 20 μM, room temperature, at least 4 hours
T2 construct: The supernatant was collected, which was provided for use as a TACE crude extract; endogenous in cells; host or cells: THP-1 cells stimulated with LPS, silica and hydroxyurea; membrane fraction solubilised with 1% Triton X-100
T2 sequence (P78536 215-824): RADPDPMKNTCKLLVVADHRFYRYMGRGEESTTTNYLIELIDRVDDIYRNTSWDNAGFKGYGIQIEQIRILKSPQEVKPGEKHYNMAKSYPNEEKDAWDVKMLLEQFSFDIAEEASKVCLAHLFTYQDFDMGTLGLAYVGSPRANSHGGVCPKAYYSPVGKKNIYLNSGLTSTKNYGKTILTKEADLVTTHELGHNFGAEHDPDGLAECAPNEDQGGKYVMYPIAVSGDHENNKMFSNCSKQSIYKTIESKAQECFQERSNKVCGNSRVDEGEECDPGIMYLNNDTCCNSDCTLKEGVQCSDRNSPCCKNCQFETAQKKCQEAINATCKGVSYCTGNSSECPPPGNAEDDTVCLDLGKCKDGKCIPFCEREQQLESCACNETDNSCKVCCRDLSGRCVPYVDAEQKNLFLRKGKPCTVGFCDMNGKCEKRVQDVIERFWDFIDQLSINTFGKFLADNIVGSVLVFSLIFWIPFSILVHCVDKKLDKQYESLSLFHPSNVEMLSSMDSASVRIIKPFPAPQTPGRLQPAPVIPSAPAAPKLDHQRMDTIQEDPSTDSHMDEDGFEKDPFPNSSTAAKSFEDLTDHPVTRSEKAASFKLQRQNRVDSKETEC
Method: Test 1 (In Vitro TACE Inhibitory Activity)
(1) Crude Extraction of TACE from THP-1 Cell Membrane
To THP-1 cells (cell density: 2×10^6/mL) suspended in RPMI 1640 medium containing 1% FBS were added LPS (E. coli 055:B55, final concentration: 1 pg/mL), silica (0.014 μm, final concentration: 50 μg/mL) and hydroxyurea (final concenration: 2 mM), followed by cultivation at 37° C. for 16 hours under 5%-CO2 conditions. The resulting cells were then washed once with RPMI 1640 medium free of FBS. The cells were suspended in 3 times the pellet volume of Solution A (10 mM sodium phosphate (pH 7.4), 1 mM MgCl2, 30 mM NaCl, 0.02% NaN3, 5 μM PMSF (phenyl methyl sulfonyl fluoride)). The cells were ground by a Polytron homogenizer (5 sec×5 times, ice cooling for 1 to 2 minutes each time). The homogenate solution was stacked over 41% sucrose-Solution A, followed by centrifugation (150,000 g×1 hour). After centrifugation, the intermediate layer was collected and diluted with 4 volumes of Solution A, followed by centrifugation (150,000 g×20 min). A sufficient amount of a solubilizing solution (1%-Triton X-100-A solution) was added (protein concentration: 1 mg/mL) and the mixture was stirred (4° C.×1 hour). Stirring was followed by centrifugation (100,000 g×30 min, 4° C.). The supernatant was collected, which was provided for use as a TACE crude extract.
(2) Measurement of TACE Inhibitory Activity
TACE (crude extracted protein from membrane fraction of THP-1 cells, final concentration: 10 μg/mL), each of test compounds (DMSO final concentration: 1%) shown in Table 1 and an incubate solution (50 mM Tris-HCl (pH 7.4), 5 mM CaCl2, 0.002% NaN3, 0.002% Brij 35) was added to a 96-well black plate. After pre-incubation at room temperature for 30 minutes, a substrate (N-methylanthranilyl-LAQAVRSK(DNP)rr-NH2: product of PEPTIDE INSTITUTE, INC., final concentration: 20 μM) was added, followed by incubation at room temperature for at least 4 hours. The fluorescence intensity was measured using POLAR STAR (Ex: 340 nm, Em: 430 nm) and from it, TACE inhibitory activity (IC50 value) was calculated.

SMILES | melting point [°C] | IC50 (MMP-1) [nM] | IC50 [1] [nM]
O=C(/C=C(/c1ccccc1)c1cccc(NS(=O)(=O)N2CCCCC2)c1)NO [Compound 26, Z-3-[3-(1-Piperidinesulfonylamino)phenyl]-3-phenylpropenohydroxamic Acid] | 158 to 159 | – | –
O=C(/C=C(/c1ccccc1)c1cccc(NS(=O)(=O)c2cccc3ccccc23)c1)NO [Compound 27, Z-3-[3-(1-Naphthalenesulfonylamino)phenyl]-3-phenylpropenohydroxamic Acid] | 160 to 163 | – | –
CN(C)c1cccc2c(S(=O)(=O)Nc3cccc(/C(=C\C(=O)NO)c4ccccc4)c3)cccc12 [Compound 30, Z-3-[3-[5-(Dimethylamino)-1-naphthalenesulfonylamino)phenyl]-3-phenylpropenohydroxamic Acid] | 123 to 125 | – | –
O=C(/C=C(/c1ccccc1)c1ccc(NS(=O)(=O)c2ccc([N+](=O)[O-])cc2)cc1)NO [Compound 35, Z-3-[4-(4-Nitrobenzenesulfonylamino)phenyl]-3-phenylpropenohydroxamic Acid] | 146 to 148 | – | –
O=C(/C=C(/c1ccccc1)c1cc(NS(=O)(=O)c2ccc3ccccc3c2)ccc1Cl)NO [Compound 36, Z-3-[2-Chloro-5-(2-naphthalenesulfonylamino)phenyl]-3-phenylpropenohydroxamic Acid] | 173 to 175 | – | –
COc1ccc(S(=O)(=O)Nc2ccc(Cl)c(/C(=C\C(=O)NO)c3ccccc3)c2)cc1OC [Compound 37, Z-3-[2-Chloro-5-(3,4-dimethoxybenzenesulfonylamino)phenyl]-3-phenylpropenohydroxamic Acid] | 127 to 130 | – | –
COc1ccc(C(=O)Nc2cccc(C(=CC(=O)NO)c3cccc(NC(=O)c4ccc(OC)cc4)c3)c2)cc1 [Compound 39, 3,3-bis[3-(4-Methoxybenzoylamino)phenyl]propenohydroxamic Acid] | 198 to 200 | – | –
O=C(C=C(c1cccc(NS(=O)(=O)c2ccc(Br)cc2)c1)c1cccc(NS(=O)(=O)c2ccc(Br)cc2)c1)NO [Compound 40, 3,3-bis [3-(4-Bromobenzenesulfonylamino)phenyl]propenohydroxamic Acid] | 137 to 141 | – | –
COc1ccc(S(=O)(=O)Nc2cccc(C(=CC(=O)NO)c3cccc(NS(=O)(=O)c4ccc(OC)c(OC)c4)c3)c2)cc1OC [Compound 44, 3,3-bis[3-(3,4-Dimethoxybenzenesulfonylamino)phenyl]propenohydroxamic Acid] | 132 to 135 | – | –
O=C(C=C(c1cccc(NS(=O)(=O)c2ccc3ccccc3c2)c1)c1cccc(NS(=O)(=O)c2ccc3ccccc3c2)c1)NO [Compound 45, 3,3-bis[3-(2-Naphthalenesulfonylamino)phenyl]propenohydroxamic Acid] | 128 to 131 | – | –
O=C(C=C(c1cccc(NS(=O)(=O)c2cccc3cccnc23)c1)c1cccc(NS(=O)(=O)c2cccc3cccnc23)c1)NO [Compound 46, 3,3-bis[3-(8-Quinolinesulfonylamino)phenyl]propenohydroxamic Acid] | 152 to 156 | – | –
O=C(NO)C(F)=C(c1cccc(NS(=O)(=O)c2cccc3cccnc23)c1)c1cccc(NS(=O)(=O)c2cccc3cccnc23)c1 [Compound 49, 2-Fluoro-3,3-bis[3-(8-quinolinesulfonylamino)phenyl]propenohydroxamic Acid] | 150 to 153 | – | –
COc1ccc(NC(=S)Nc2cccc(/C(=C\C(=O)NO)c3ccccc3)c2)cc1 [Compound 58, Z-3-[3-[3-(4-Methoxyphenyl)thioureido]phenyl]-3-phenylpropenohydroxamic Acid] | 176 to 179 | – | –
CN(C)c1cccc2c(S(=O)(=O)N(C)c3cccc(/C(=C\C(=O)NO)c4ccccc4)c3)cccc12 [Compound 74, Z-3-[3-[N-(5-(Dimethylamino)-1-naphthalenesulfonyl)-N-methylamino]phenyl]-3-phenylpropenohydroxamic acid] | 96 to 99 | – | –

More lines, now with the values ahead:

melting point [°C] | IC50 (MMP-1) [nM] | IC50 [1] [nM] | SMILES
134 to 137 | – | – | COc1ccc(C(=O)Nc2cccc(/C(=C\C(=O)NO)c3ccccc3)c2)cc1 [Compound 53, Z-3-[3-(4-Methoxybenzoylamino)phenyl]-3-phenylpropenohydroxamic Acid]
188 to 191 | – | – | COc1ccc(S(=O)(=O)Nc2ccc(/C(=C\C(=O)NO)c3ccccc3)cc2)cc1 [Compound 54, Z-3-[4-(4-Methoxybenzenesulfonylamino)phenyl]-3-phenylpropenohydroxamic Acid]
190 to 192 | – | – | COc1ccc(NC(=O)Nc2cccc(/C(=C\C(=O)NO)c3ccccc3)c2)cc1 [Compound 57, Z-3-[3-[3-(4-Methoxyphenyl)ureido]phenyl]-3-phenylpropenohydroxamic Acid]
– | > 10000 | 8.6 | COc1ccc(S(=O)(=O)N(C)c2cccc(/C(=C\C(=O)NO)c3ccccc3)c2)cc1 [Compound 62, Z-3-[3-[N-(4-Methoxybenzenesulfonyl)-N-methylamino]phenyl]-3-phenylpropenohydroxamic Acid]
– | > 10000 | 8.6 | COc1ccc(S(=O)(=O)N(c2cccc(/C(=C\C(=O)NO)c3ccccc3)c2)C(C)C)cc1 [Compound 63, Z-3-[3-[N-(4-Methoxybenzenesulfonyl)-N-isopropylamino]phenyl]-3-phenylpropenohydroxamic Acid]
88 to 90 | – | – | O=C(/C=C(/c1ccccc1)c1cccc(N(Cc2ccccc2)S(=O)(=O)c2ccc3ccccc3c2)c1)NO [Compound 65, Z-3-[3-[N-(2-Naphthalenesulfonyl)-N-benzylamino]phenyl]-3-phenylpropenohydroxamic Acid]
127 to 129 | – | – | O=C(/C=C(/c1ccccc1)c1cccc(N(CCc2ccccc2)S(=O)(=O)c2ccc3ccccc3c2)c1)NO [Compound 66, Z-3-[3-[N-(2-Naphthalenesulfonyl)-N-(2-phenylethyl)amino]phenyl]-3-phenylpropenohydroxamic Acid]
168 to 170 | – | – | O=C(/C=C(/c1ccccc1)c1cccc(N(Cc2cccnc2)S(=O)(=O)c2ccc3ccccc3c2)c1)NO [Compound 67, Z-3-[3-[N-(2-Naphthalenesulfonyl)-N-(3-pyridylmethyl)amino]phenyl]-3-phenylpropenohydroxamic Acid]
– | > 10000 | 29 | CN(c1cccc(/C(=C\C(=O)NO)c2ccccc2)c1)S(=O)(=O)c1cccc2cccnc12 [Compound 73, Z-3-[3-[N-(8-Quinolinesulfonyl)-N-methylamino]phenyl]-3-phenylpropenohydroxamic Acid]
151 to 153 | – | – | COc1ccc(OC)c(S(=O)(=O)N(C)c2cccc(/C(=C\C(=O)NO)c3ccccc3)c2)c1 [Compound 76, Z-3-[3-[N-(2,5-Dimethoxybenzenesulfonyl)-N-methylamino]phenyl]-3-phenylpropenohydroxamic acid]
195 to 197 | – | – | COc1ccc(S(=O)(=O)N(c2cccc(/C(=C/C(=O)NO)c3cccnc3)c2)C(C)C)cc1 [Compound 114, Z-3-[3-[N-(4-Methoxybenzenesulfonyl)-N-isopropylamino]phenyl]-3-(3-pyridyl)propenohydroxamic acid]
151 to 153 | – | – | CCCN(c1cccc(/C(=C\C(=O)NO)c2cccnc2)c1)S(=O)(=O)c1ccc(OC)cc1 [Compound 115, E-3-[3-[N-(4-Methoxybenzenesulfonyl)-N-propylamino]phenyl]-3-(3-pyridyl)propenohydroxamic Acid]
